From patent US12577231B2, “Androgen receptor PROTACS” (GlaxoSmithKline Intellectual Property Development Limited, priority 2023, dated 2026) come the findings set out here.

Molecules are shown by their SMILES.

The experiment has as its target T1, Androgen Receptor protein in human LnCaP cells (Homo sapiens, UniProt P10275, T878A).
T1 construct: the AR gene was modified, using CRISPR/Cas9 editing, so the expressed AR protein included an 11 amino acid HiBiT tag; endogenous in cells; host or cells: clonal LnCaP derived cell line, endogenous AR gene edited by CRISPR/Cas9
T1 sequence (P10275 1-920 T878A): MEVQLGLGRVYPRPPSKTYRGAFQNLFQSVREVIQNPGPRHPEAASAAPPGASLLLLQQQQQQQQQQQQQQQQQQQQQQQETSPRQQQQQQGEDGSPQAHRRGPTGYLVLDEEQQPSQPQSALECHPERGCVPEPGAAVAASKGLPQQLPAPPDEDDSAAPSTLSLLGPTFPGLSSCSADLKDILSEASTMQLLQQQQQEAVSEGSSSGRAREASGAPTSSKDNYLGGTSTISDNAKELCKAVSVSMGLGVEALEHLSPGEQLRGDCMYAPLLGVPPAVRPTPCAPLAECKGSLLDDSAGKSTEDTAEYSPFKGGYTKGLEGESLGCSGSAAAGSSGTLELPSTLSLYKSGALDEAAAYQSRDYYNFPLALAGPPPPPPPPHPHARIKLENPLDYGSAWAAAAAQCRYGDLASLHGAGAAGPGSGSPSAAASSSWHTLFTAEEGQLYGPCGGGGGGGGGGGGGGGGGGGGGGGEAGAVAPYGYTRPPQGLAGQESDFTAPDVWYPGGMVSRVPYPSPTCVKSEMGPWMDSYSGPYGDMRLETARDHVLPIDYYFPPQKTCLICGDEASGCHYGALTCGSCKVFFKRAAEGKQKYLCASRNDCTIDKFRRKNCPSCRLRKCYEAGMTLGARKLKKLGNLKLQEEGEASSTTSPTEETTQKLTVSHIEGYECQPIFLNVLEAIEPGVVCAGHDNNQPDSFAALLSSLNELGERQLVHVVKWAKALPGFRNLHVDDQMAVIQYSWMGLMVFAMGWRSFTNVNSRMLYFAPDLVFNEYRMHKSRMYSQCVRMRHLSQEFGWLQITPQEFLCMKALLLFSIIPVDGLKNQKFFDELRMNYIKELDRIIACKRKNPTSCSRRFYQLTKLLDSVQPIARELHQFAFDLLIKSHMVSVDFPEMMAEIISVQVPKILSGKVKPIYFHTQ
In words: Androgen Receptor Degradation Assay (Nano-Glo HiBiT, LnCaP cells). In kind it is cell-based. The note with it: 18 h, HiBiT-tagged AR LnCaP cells, 18 h incubation, fitted curve asymptote maximum of degradation, read-out: mean asymptote max. As for the experimental part: Degradation of Androgen Receptor protein in human LnCaP cells treated with PROTACs was quantified using the Nano-Glo® HiBiT Lytic Detection System (Promega) in 384 well assay plate format. A clonal LnCaP derived cell line was first established in which the AR gene was modified, using CRISPR/Cas9 editing, so the expressed AR protein included an 11 amino acid HiBiT tag at its amino-terminus. 10 mM DMSO stock solutions of PROTACs were prepared and diluted across an 11 concentration, 3 fold increment range, and 25 nL dispensed into a white opaque bottomed 384 well assay plate (Thermofisher) using an acoustic ECHO dispenser (Labcyte). Cells were grown in cell culture medium (RPMI 1640 supplemented with 15% FBS, penicillin 50U/mL and streptomycin 50 ug/mL (Thermofisher)). For the assay, cells were detached from flask and resuspended with assay medium (FluoroBrite™ DMEM supplemented with 10% heat inactivated FBS, penicillin 50U/mL and streptomycin 50 ug/mL (Thermofisher)). The cell suspension was centrifuged at 400 g for 5 min and the pellet resuspended in assay medium. 25 μL of cell suspension containing 10,000 cells was dispensed into each well of the assay plate containing a serial dilution of test compounds, which was then incubated for 18 h at 37° C./5% CO2. Control wells were included on each assay plate, with assay medium without cells being the no AR remaining 100% effect control, and cells treated with DMSO vehicle only, without PROTAC, the 0% effect control. 25 μL of Nano-Glo® HiBiT lysis buffer supplemented with LgBiT protein and Nano-Glo® substrate (Promega) was added to each well and the plate shaken at 500 rpm for 10 min at room temperature. The intensity of luminescence was measured using a PHERAstar microplate reader (BMG Labtech) and the % AR protein remaining in each well calculated by normalising the raw luminescence value to the above control wells. Parameters corresponding to the potency and efficacy estimates of the PROTACs were obtained from these normalised luminescence values using software (IDBS ActivityBase). These included the DC50 (concentration at which 50% of protein was degraded in M) and the Dmax (maximal degradation, in %) estimates. Two versions of the DC50, called relative DC50 and absolute DC50, were generated. These are the inflection point of a fitted 4 parameter sigmoidal response curve and the interpolated concentration of PROTAC corresponding to 50% of the protein being degraded, respectively. The corresponding pDC50 is reported as −log10(relative […]). The Dmax parameter was the maximum experimentally observed degradation and the asymptote max parameter the fitted response curve asymptote maximum.
As to `CC1(C)[C@H](NC(=O)c2ccc(N3CCC(CN4CCC(n5ncc6c(N7CCC(=O)NC7=O)cccc65)CC4)CC3)c(F)c2)C(C)(C)[C@H]1Oc1cnc(C#N)c(Cl)c1` [Example 3, N-((1r,3r)-3-((5-Chloro-6-cyanopyridin-3-yl)oxy)-2,2,4,4-tetramethylcyclobutyl)-4-(4-((4-(4-(2,4-dioxotetrahydropyrimidin-1(2H)-yl)-1H-indazol-1-yl)piperidin-1-yl)methyl)piperidin-1-yl)-3-fluorobenzamide], the Dmax was at least 50%. In the case of `CC1(C)[C@H](NC(=O)c2ccc(N3CCC(CN4CCC(n5ncc6c(N7CCC(=O)NC7=O)cccc65)CC4)CC3)c(F)c2)C(C)(C)[C@H]1Oc1ccc(C#N)c2c1CCCO2` [Example 8, N-((1r,3r)-3-((8-Cyanochroman-5-yl)oxy)-2,2,4,4-tetramethylcyclobutyl)-4-(4-((4-(4-(2,4-dioxotetrahydropyrimidin-1(2H)-yl)-1H-indazol-1-yl)piperidin-1-yl)methyl)piperidin-1-yl)-3-fluorobenzamide], the Dmax is at least 50%. Then `CC1(C)[C@H](NC(=O)c2ccc(N3CCC(CN4CCC(n5ncc6c(N7CCC(=O)NC7=O)c(F)ccc65)CC4)CC3)c(F)c2)C(C)(C)[C@H]1Oc1ccc(C#N)c(Cl)c1` [Example 13, N-((1r,3r)-3-(3-Chloro-4-cyanophenoxy)-2,2,4,4-tetramethylcyclobutyl)-4-(4-((4-(4-(2,4-dioxotetrahydropyrimidin-1(2H)-yl)-5-fluoro-1H-indazol-1-yl)piperidin-1-yl)methyl)piperidin-1-yl)-3-fluorobenzamide], with at least 50%.

With `COc1cc(O[C@H]2C(C)(C)[C@H](NC(=O)c3ccc(N4CCC(CN5CCC(n6ncc7c(N8CCC(=O)NC8=O)cccc76)CC5)CC4)cc3)C2(C)C)ccc1C#N` [Example 15, N-((1r,3r)-3-(4-Cyano-3-methoxyphenoxy)-2,2,4,4-tetramethylcyclobutyl)-4-(4-((4-(4-(2,4-dioxotetrahydropyrimidin-1(2H)-yl)-1H-indazol-1-yl)piperidin-1-yl)methyl)piperidin-1-yl)benzamide], the Dmax was at least 50%. Then `COc1cc(O[C@H]2C(C)(C)[C@H](NC(=O)c3ccc(N4CCC(CN5CC[C@@H](n6ncc7c(N8CCC(=O)NC8=O)cccc76)[C@@H](F)C5)CC4)c(F)c3)C2(C)C)ccc1C#N` [Example 27, N-((1r,3r)-3-(4-Cyano-3-methoxyphenoxy)-2,2,4,4-tetramethylcyclobutyl)-4-(4-(((3,4R)-4-(4-(2,4-dioxotetrahydropyrimidin-1(2H)-yl)-1H-indazol-1-yl)-3-fluoropiperidin-1-yl)methyl)piperidin-1-yl)-3-fluorobenzamide], with at least 50%.

On to `CC1(C)[C@H](NC(=O)c2ccc(N3CCC(CN4CCC(n5ccc6c(N7CCC(=O)NC7=O)ncnc65)CC4)CC3)cc2)C(C)(C)[C@H]1Oc1ccc(C#N)c2ncccc12` [Example 28, N-((1r,3r)-3-((8-Cyanoquinolin-5-yl)oxy)-2,2,4,4-tetramethylcyclobutyl)-4-(4-((4-(4-(2,4-dioxotetrahydropyrimidin-1(2H)-yl)-7H-pyrrolo[2,3-d]pyrimidin-7-yl)piperidin-1-yl)methyl)piperidin-1-yl)benzamide], for which the Dmax is at least 50%. The result for `CC1(C)[C@H](NC(=O)c2cc(F)c(N3CCC(CN4CCC(n5ncc6c(N7CCC(=O)NC7=O)cccc65)CC4)CC3)c(F)c2)C(C)(C)[C@H]1Oc1ccc(C#N)c2ncccc12` [Example 30, N-((1r,3r)-3-((8-Cyanoquinolin-5-yl)oxy)-2,2,4,4-tetramethylcyclobutyl)-4-(4-((4-(4-(2,4-dioxotetrahydropyrimidin-1(2H)-yl)-1H-indazol-1-yl)piperidin-1-yl)methyl)piperidin-1-yl)-3,5-difluorobenzamide] reads at least 50%. For `CC1(C)[C@H](NC(=O)c2ccc(N3CCC(CN4CCC(n5ccc6c(N7CCC(=O)NC7=O)cccc65)CC4)CC3)c(F)c2)C(C)(C)[C@H]1Oc1ccc(C#N)c2ncccc12` [Example 31, N-((1r,3r)-3-((8-Cyanoquinolin-5-yl)oxy)-2,2,4,4-tetramethylcyclobutyl)-4-(4-((4-(4-(2,4-dioxotetrahydropyrimidin-1(2H)-yl)-1H-indol-1-yl)piperidin-1-yl)methyl)piperidin-1-yl)-3-fluorobenzamide], the Dmax is at least 50%. Take `CC1(C)[C@H](NC(=O)c2ccc(N3CCC(CN4CCC(n5ccc6c(N7CCC(=O)NC7=O)cc(F)cc65)CC4)CC3)c(F)c2)C(C)(C)[C@H]1Oc1ccc(C#N)c2ncccc12` [Example 32, N-((1r,3r)-3-((8-Cyanoquinolin-5-yl)oxy)-2,2,4,4-tetramethylcyclobutyl)-4-(4-((4-(4-(2,4-dioxotetrahydropyrimidin-1(2H)-yl)-6-fluoro-1H-indol-1-yl)piperidin-1-yl)methyl)piperidin-1-yl)-3-fluorobenzamide]: the Dmax is at least 50%. Consider `CC1(C)[C@H](NC(=O)c2ccc(N3CC[C@@H](CN4CCC(n5ncc6c(N7CCC(=O)NC7=O)cccc65)CC4)C3)c(F)c2)C(C)(C)[C@H]1Oc1ccc(C#N)c2ncccc12` [Example 33, N-((1r,3S)-3-((8-Cyanoquinolin-5-yl)oxy)-2,2,4,4-tetramethylcyclobutyl)-4-((S)-3-((4-(4-(2,4-dioxotetrahydropyrimidin-1(2H)-yl)-1H-indazol-1-yl)piperidin-1-yl)methyl)pyrrolidin-1-yl)-3-fluorobenzamide], for which the Dmax was at least 50%.

With `CC1(C)[C@H](NC(=O)c2ccc(N3CC[C@H](CN4CCC(n5ncc6c(N7CCC(=O)NC7=O)cccc65)CC4)C3)c(F)c2)C(C)(C)[C@H]1Oc1ccc(C#N)c2ncccc12` [Example 34, N-((1r,3R)-3-((8-Cyanoquinolin-5-yl)oxy)-2,2,4,4-tetramethylcyclobutyl)-4-((R)-3-((4-(4-(2,4-dioxotetrahydropyrimidin-1(2H)-yl)-1H-indazol-1-yl)piperidin-1-yl)methyl)pyrrolidin-1-yl)-3-fluorobenzamide], the Dmax is at least 50%. Take `CC1(C)[C@H](NC(=O)c2ccc(N3CCC(CN4CC[C@@H](n5ncc6c(N7CCC(=O)NC7=O)cccc65)C4)CC3)c(F)c2)C(C)(C)[C@H]1Oc1ccc(C#N)c2ncccc12` [Example 36, N-((1r,3r)-3-((8-Cyanoquinolin-5-yl)oxy)-2,2,4,4-tetramethylcyclobutyl)-4-(4-(((R)-3-(4-(2,4-dioxotetrahydropyrimidin-1(2H)-yl)-1H-indazol-1-yl)pyrrolidin-1-yl)methyl)piperidin-1-yl)-3-fluorobenzamide]: the Dmax was at least 50%. Then `CC1(C)[C@H](NC(=O)c2ccc(N3CCC(CN4CC[C@H](n5ncc6c(N7CCC(=O)NC7=O)cccc65)C4)CC3)c(F)c2)C(C)(C)[C@H]1Oc1ccc(C#N)c2ncccc12` [Example 37, N-((1r,3r)-3-((8-Cyanoquinolin-5-yl)oxy)-2,2,4,4-tetramethylcyclobutyl)-4-(4-(((S)-3-(4-(2,4-dioxotetrahydropyrimidin-1(2H)-yl)-1H-indazol-1-yl)pyrrolidin-1-yl)methyl)piperidin-1-yl)-3-fluorobenzamide], with at least 50%.
